Test results as given in US20240148821A1, “PHARMACEUTICAL USE OF CYCLIC PEPTIDE COMPOUND” (CHUGAI SEIYAKU KABUSHIKI KAISHA, priority 2021, published 2024).
pIC50: −log10 of the molar value. Numbered stars: 1 amine (or outer) side, 2 acyl side, 3 side chain; on linkers, the order of the positions; unused ones are H or OH. Bridge positions count the residues as written; N and C are the ends. Square brackets hold non-standard residues; d marks the D form. Peptide text beside a SMILES is read from it. * marks the point of attachment. hPhe(3,5-F2-4-CF3) = N[C@@H](CCc1cc(F)c(C(F)(F)F)c(F)c1)C(=O)O; hPhe(3-Cl-4-CF3) = N[C@@H](CCc1ccc(C(F)(F)F)c(Cl)c1)C(=O)O; hPhe(3-F,4-CF3) = N[C@@H](CCc1ccc(C(F)(F)F)c(F)c1)C(=O)O; X19 = O=C([C@@H]1C[C@@H](N2CCC(F)(F)CC2)CN1[*:1])[*:2]; NMePhe(4-CF3) = CN[C@@H](Cc1ccc(C(F)(F)F)cc1)C(=O)O; 3Oxa8azabicyclo(3.2.1)octane = C1CC2COCC1N2*; NMePhe(4-Cl) = CN[C@@H](Cc1ccc(Cl)cc1)C(=O)O; NMePhe(4-Me) = CN[C@@H](Cc1ccc(C)cc1)C(=O)O; NMePhe(2-Cl) = CN[C@@H](Cc1ccccc1Cl)C(=O)O; hPhe(4-Cl) = N[C@@H](CCc1ccc(Cl)cc1)C(=O)O; NMedβ3hAla = C[C@H](CC(=O)[*:2])N(C)[*:1]; NMeGly(cPent) = CN[C@H](C(=O)O)C1CCCC1; NMeCha = CN[C@@H](CC1CCCCC1)C(=O)O; NMeAhp(2) = CCCCC[C@H](NC)C(=O)O; NMeChg = CN[C@H](C(=O)O)C1CCCCC1; NMeF = CN[C@@H](Cc1ccccc1)C(=O)O; NMeI = CC[C@H](C)[C@H](NC)C(=O)O; NMeD = CN[C@@H](CC(=O)O)C(=O)O; NMeL = CN[C@@H](CC(C)C)C(=O)O; Chg = N[C@H](C(=O)O)C1CCCCC1; NMeV = CN[C@H](C(=O)O)C(C)C; d(β3hA) = C[C@@H](N)CC(=O)O; NMeS = CN[C@@H](CO)C(=O)O; Morpholide = C1CN(*)CCO1; NMeA = CN[C@@H](C)C(=O)O; NMeAib = CNC(C)(C)C(=O)O; Piperidide = C1CCN(*)CC1; Pra = C#CC[C@H](N)C(=O)O; Ac5c = NC1(C(=O)O)CCCC1; Aze = O=C(O)[C@@H]1CCN1; Isopentyl = CC(C)CC*; Sar = CNCC(=O)O

Columns and labels:
[1] = system: Human pancreatic cancer cell line AsPC-1 (G12D mutation Kras); assay: AsPC-1 cell growth inhibition (AsPC-1 CGI); type: cell-based; conditions: read-out: AsPC-1 cell growth inhibition, 50% growth inhibitory concentration (IC50 value); 96 hours, CellTiter-Glo, values classified in ranges
Procedure: Test compounds were serially dilated with dimethyl sulfoxide, and 200 nL was then dispensed to a U-bottom 96-well plate using Labcyte Echo. […] The cell suspension was dispensed to a. plate containing a test compound at 100 μL per well and incubated at 37° C. in a 5% carbon dioxide gas incubator. 96 hours later, 80 μL of CellTiter-Glo (Promega) was added to each well and fluorescence was measured.

[2] = biological target: protein-protein interaction between Kras and SOS1 (biotin-tagged human Kras loaded with GDP, His-tagged human SOS1) (Homo sapiens (Human), UniProt P01116, G12D); assay: Protein-protein interaction inhibition between Kras and SOS1 (KrasG12D-SOS PPI) using AlphaScreen; type: biochemical; conditions: AlphaScreen; biotin-tagged human Kras loaded with GDP, His-tagged human SOS1; read-out: KRAS G12D-SOS PPI IC50;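 further: kras produced in E. coli, Ni-coupled donor beads and streptavidin acceptor beads, excitation 680 nm with emission detected at 520–620 nm via singlet oxygen transfer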

Row | SMILES | pIC50 [1] | pIC50 [2]
1 | CC[C@H](C)[C@@H]1NC(=O)[C@H](C(C)C)N(C)C(=O)C[C@@H](C)NC(=O)[C@H](CC(C)C)N(C)C(=O)C2(CCCC2)NC(=O)[C@H](CC(C)C)N(C)C(=O)[C@H](CCc2ccc(C(F)(F)F)c(Cl)c2)NC(=O)CN(C)C(=O)[C@H](CC2CCCCC2)N(C)C(=O)CN(C)C(=O)CN(C)C1=O [Compound 892] (cyclo([Ac5c][NMeL][d(β3hA)][NMeV]I[Sar][Sar][NMeCha][Sar][hPhe(3-Cl-4-CF3)][NMeL])) | < 6.30 | 7.17
2 | CCCCC[C@H]1C(=O)N[C@@H]([C@@H](C)CC)C(=O)N(C)[C@@H](C)C(=O)N2CC[C@H]2C(=O)N(C)[C@@H](Cc2ccc(C)cc2)C(=O)N(C)CC(=O)N[C@@H](CCc2ccc(C(F)(F)F)c(Cl)c2)C(=O)N2CCC[C@H]2C(=O)NC2(CCCC2)C(=O)N(C)[C@@H]([C@@H](C)CC)C(=O)N(C)[C@H](C(=O)N(C)C)CC(=O)N1C [Compound 896] ([NMeAhp(2)]I[NMeA][Aze][NMePhe(4-Me)][Sar][hPhe(3-Cl-4-CF3)]P[Ac5c][NMeI][NMeD]-NMe2; lactam N-11) | ≥ 7.70 | 8.96
3 | CC[C@H](C)[C@@H]1NC(=O)[C@H](CC(C)C)N(C)C(=O)C[C@@H](C)N(C)C(=O)[C@H](C2CCCCC2)NC(=O)C(C)(C)N(C)C(=O)[C@H](CC(C)C)NC(=O)[C@H](CCc2ccc(C(F)(F)F)c(F)c2)NC(=O)CN(C)C(=O)[C@H](Cc2ccc(Cl)cc2)N(C)C(=O)CN(C)C(=O)CN(C)C1=O [Compound 897] (cyclo([Chg][NMedβ3hAla][NMeL]I[Sar][Sar][NMePhe(4-Cl)][Sar][hPhe(3-F,4-CF3)]L[NMeAib])) | < 6.30 | 6.82
4 | CC[C@H](C)[C@@H]1NC(=O)[C@H](C)N(C)C(=O)C[C@@H](C(=O)N2CCCCC2)N(C)C(=O)[C@H](C(C)C)N(C)C(=O)C2(CCCC2)NC(=O)[C@@H]2CCCN2C(=O)[C@H](CCc2ccc(Cl)cc2)NC(=O)CN(C)C(=O)[C@H](CC2CCCCC2)N(C)C(=O)[C@@H]2CCN2C(=O)[C@H](C)N(C)C1=O [Compound 903] ([NMeA]I[NMeA][Aze][NMeCha][Sar][hPhe(4-Cl)]P[Ac5c][NMeV][NMeD]-Piperidide; lactam N-11) | < 6.30 | 7.62
5 | CC[C@H](C)[C@@H]1NC(=O)[C@H](CC(C)C)N(C)C(=O)C[C@@H](C)N(C)C(=O)[C@H]([C@@H](C)CC)N(C)C(=O)C2(CCCC2)NC(=O)[C@@H]2CCCN2C(=O)[C@H](CCc2cc(F)c(C(F)(F)F)c(F)c2)NC(=O)CN(C)C(=O)[C@H](Cc2ccc(C(F)(F)F)cc2)N(C)C(=O)[C@@H]2CCN2C(=O)[C@H](C)N(C)C1=O [Compound 907] (cyclo([Ac5c][NMeI][NMedβ3hAla][NMeL]I[NMeA][Aze][NMePhe(4-CF3)][Sar][hPhe(3,5-F2-4-CF3)]P)) | ≥ 7.70 | 8.85
6 | CC[C@H](C)[C@@H]1NC(=O)[C@H](C)N(C)C(=O)C[C@@H](C(=O)N2CCCCC2)N(C)C(=O)[C@H](C(C)C)N(C)C(=O)C2(CCCC2)NC(=O)[C@@H]2C[C@@H](N3CCC(F)(F)CC3)CN2C(=O)[C@H](CCc2ccc(C(F)(F)F)c(Cl)c2)NC(=O)CN(C)C(=O)[C@H](CC2CCCCC2)N(C)C(=O)CN(C)C(=O)CN(C)C1=O [Compound 914] ([NMeA]I[Sar][Sar][NMeCha][Sar][hPhe(3-Cl-4-CF3)][X19][Ac5c][NMeV][NMeD]-Piperidide; lactam N-11) | < 6.30 | 8.96
7 | CC[C@H](C)[C@@H]1NC(=O)[C@H](CC(C)C)N(C)C(=O)C[C@@H](C(=O)N2CCOCC2)N(C)C(=O)[C@H](C2CCCC2)N(C)C(=O)C2(CCCC2)NC(=O)[C@@H]2CCCN2C(=O)[C@H](CCc2ccc(C(F)(F)F)c(F)c2)NC(=O)CN(C)C(=O)[C@H](Cc2ccc(C)cc2)N(C)C(=O)[C@@H]2CCN2C(=O)[C@H](C)N(C)C1=O [Compound 938] ([NMeL]I[NMeA][Aze][NMePhe(4-Me)][Sar][hPhe(3-F,4-CF3)]P[Ac5c][NMeGly(cPent)][NMeD]-Morpholide; lactam N-11) | ≥ 7.70 | 9.16
8 | CC[C@H](C)[C@@H]1NC(=O)[C@H](CC(C)C)N(C)C(=O)C[C@@H](C(=O)N2CCCCC2)N(C)C(=O)[C@H](C(C)C)N(C)C(=O)C2(CCCC2)NC(=O)[C@H](C)N(C)C(=O)[C@H](CCc2ccc(C(F)(F)F)c(Cl)c2)NC(=O)CN(C)C(=O)[C@H](CC2CCCCC2)N(C)C(=O)CN(C)C(=O)CN(C)C1=O [Compound 939] ([NMeL]I[Sar][Sar][NMeCha][Sar][hPhe(3-Cl-4-CF3)][NMeA][Ac5c][NMeV][NMeD]-Piperidide; lactam N-11) | < 6.30 | 8.10
9 | CC[C@H](C)[C@@H]1NC(=O)[C@H](CC(C)C)N(C)C(=O)C[C@@H](C(=O)N2CCCCC2)N(C)C(=O)[C@H](C2CCCCC2)N(C)C(=O)C2(CCCC2)NC(=O)[C@H](COCCC(C)C)N(C)C(=O)[C@H](CCc2ccc(C(F)(F)F)c(Cl)c2)NC(=O)CN(C)C(=O)[C@H](CC2CCCCC2)N(C)C(=O)CN(C)C(=O)CN(C)C1=O [Compound 940] ([NMeL]I[Sar][Sar][NMeCha][Sar][hPhe(3-Cl-4-CF3)][NMeS](Isopentyl)[Ac5c][NMeChg][NMeD]-Piperidide; lactam N-11) | < 6.30 | 6.82
10 | C#CC[C@@H]1NC(=O)[C@H](CC(C)C)N(C)C(=O)C[C@@H](C(=O)N2CCCCC2)N(C)C(=O)[C@H](C(C)C)N(C)C(=O)C2(CCCC2)NC(=O)[C@@H]2CCCN2C(=O)[C@H](CCc2ccc(C(F)(F)F)c(Cl)c2)NC(=O)CN(C)C(=O)[C@H](CC2CCCCC2)N(C)C(=O)[C@@H]2CCN2C(=O)[C@H](C)N(C)C1=O [Compound 946] ([NMeL][Pra][NMeA][Aze][NMeCha][Sar][hPhe(3-Cl-4-CF3)]P[Ac5c][NMeV][NMeD]-Piperidide; lactam N-11) | < 6.30 | 8.12
11 | CC(C)C[C@@H]1NC(=O)C(C)(C)N(C)C(=O)[C@H](CC(C)C)NC(=O)[C@H](CCc2ccc(C(F)(F)F)c(F)c2)NC(=O)CN(C)C(=O)[C@H](Cc2ccc(Cl)cc2)N(C)C(=O)CN(C)C(=O)CN(C)C(=O)[C@H](C(C)C)NC(=O)[C@H](CC(C)C)N(C)C(=O)C[C@@H](C)N(C)C1=O [Compound 956] (cyclo(L[NMeAib]L[NMedβ3hAla][NMeL]V[Sar][Sar][NMePhe(4-Cl)][Sar][hPhe(3-F,4-CF3)])) | < 6.30 | 7.10
12 | CC[C@H](C)[C@@H]1NC(=O)[C@H](C)N(C)C(=O)C[C@@H](C(=O)N2CCCCC2)N(C)C(=O)[C@H](C(C)C)N(C)C(=O)C2(CCCC2)NC(=O)[C@H](Cc2ccccc2Cl)N(C)C(=O)[C@H](CCc2ccc(C(F)(F)F)c(Cl)c2)NC(=O)CN(C)C(=O)[C@H](CC2CCCCC2)N(C)C(=O)CN(C)C(=O)CN(C)C1=O [Compound 963] ([NMeA]I[Sar][Sar][NMeCha][Sar][hPhe(3-Cl-4-CF3)][NMePhe(2-Cl)][Ac5c][NMeV][NMeD]-Piperidide; lactam N-11) | < 6.30 | 7.89
13 | CC[C@H](C)[C@@H]1NC(=O)[C@H](CC(C)C)N(C)C(=O)C[C@@H](C(=O)N(C)C)N(C)C(=O)[C@H](C2CCCC2)N(C)C(=O)C2(CCCC2)NC(=O)[C@@H]2CCCN2C(=O)[C@H](CCc2cc(F)c(C(F)(F)F)c(F)c2)NC(=O)CN(C)C(=O)[C@H](Cc2ccc(C)cc2)N(C)C(=O)[C@@H]2CCN2C(=O)[C@H](C)N(C)C1=O [Compound 965] ([NMeL]I[NMeA][Aze][NMePhe(4-Me)][Sar][hPhe(3,5-F2-4-CF3)]P[Ac5c][NMeGly(cPent)][NMeD]-NMe2; lactam N-11) | ≥ 7.70 | 9.07
14 | CC[C@H](C)[C@@H]1NC(=O)[C@H](CC(C)C)N(C)C(=O)C[C@@H](C)N(C)C(=O)[C@H](C(C)C)NC(=O)C(C)(C)N(C)C(=O)[C@H](CC(C)C)NC(=O)[C@H](CCc2ccc(C(F)(F)F)c(F)c2)NC(=O)CN(C)C(=O)[C@H](CC2CCCCC2)N(C)C(=O)CN(C)C(=O)CN(C)C1=O [Compound 967] (cyclo(I[Sar][Sar][NMeCha][Sar][hPhe(3-F,4-CF3)]L[NMeAib]V[NMedβ3hAla][NMeL])) | < 6.30 | 7.24
15 | CC[C@H](C)[C@@H]1NC(=O)[C@H](CC(C)C)N(C)C(=O)C[C@@H](C(=O)N2C3CCC2COC3)N(C)C(=O)[C@H](C2CCCC2)N(C)C(=O)C2(CCCC2)NC(=O)[C@@H]2CCCN2C(=O)[C@H](CCc2ccc(C(F)(F)F)c(Cl)c2)NC(=O)CN(C)C(=O)[C@H](CC2CCCCC2)N(C)C(=O)[C@@H]2CCN2C(=O)[C@H](C)N(C)C1=O [Compound 973] ([NMeL]I[NMeA][Aze][NMeCha][Sar][hPhe(3-Cl-4-CF3)]P[Ac5c][NMeGly(cPent)][NMeD]-{3Oxa8azabicyclo(3.2.1)octane}; lactam N-11) | ≥ 7.70 | 8.55
16 | CC[C@H](C)[C@@H]1NC(=O)[C@H](CC(C)C)N(C)C(=O)C[C@@H](C(=O)N(C)C)N(C)C(=O)[C@H]([C@@H](C)CC)N(C)C(=O)C2(CCCC2)NC(=O)[C@@H]2CCCN2C(=O)[C@H](CCc2ccc(C(F)(F)F)c(F)c2)NC(=O)CN(C)C(=O)[C@H](CC2CCCCC2)N(C)C(=O)[C@@H]2CCN2C(=O)[C@H](C)N(C)C1=O [Compound 999] ([NMeL]I[NMeA][Aze][NMeCha][Sar][hPhe(3-F,4-CF3)]P[Ac5c][NMeI][NMeD]-NMe2; lactam N-11) | ≥ 7.70 | 8.77
17 | CC[C@H](C)[C@@H]1NC(=O)[C@H](C)N(C)C(=O)C[C@@H](C)NC(=O)[C@H](C2CCCC2)N(C)C(=O)C2(CCCC2)NC(=O)[C@@H]2CCCN2C(=O)[C@H](CCc2ccc(C(F)(F)F)c(Cl)c2)NC(=O)CN(C)C(=O)[C@H](Cc2ccccc2)N(C)C(=O)[C@@H]2CCCN2C(=O)CN(C)C1=O [Compound 1004] (cyclo([Ac5c][NMeGly(cPent)][d(β3hA)][NMeA]I[Sar]P[NMeF][Sar][hPhe(3-Cl-4-CF3)]P)) | < 6.30 | 7.89
